Tests used:
[1] = system: human urinary bladder carcinoma (5637); test: Efficacy of i.v. vs. s.c. IMMU-132 in 5637 bladder carcinoma xenografts; format: in vivo, athymic nude mice; settings: for mean tumor volume: day 82; for mice still alive on day 82: N=5; for median survival time (MST): post-therapy initiation
Method: 5637 cells were expanded in tissue culture and harvested with trypsin/EDTA. Female athymic nude mice were injected s.c. with 200 μL of 5637 cell suspension mixed 1:1 with matrigel such that 1×10^7 cells was administered to each mouse. Once tumors reached approximately 0.25 cm^3 in size (15 days later), the animals were divided up into three different treatment groups of 4-5 mice each. For the i.v. injections (N=5), mice receive 500 μg i.v. twice a week for four weeks. […] A final group of mice received only saline (N=4) and served as the untreated control. Tumors were measured and mice weighed twice a week. Mice were euthanized for disease progression if their tumor volumes exceeded 1.0 cm^3 in size.

[2] = format: in vivo, human
Method: SN-38 was measured by HPLC.

[3] = Pharmacokinetics and biodistribution of 111In-labeled hRS7-CL2A-SN-38 and hRS7 IgG in nude mice bearing SK-MES-1 tumors; format: in vivo
Method: One group was injected intravenously with 20 μCi (250-μg protein) of ^111In-hRS7-CL2A-SN-38, whereas another group received 20 μCi (250-μg protein) of ^111In-hRS7 IgG. At various timepoints mice (5 per timepoint) were anesthetized, bled via intracardiac puncture, and then euthanized. Tumors and various tissues were removed, weighed, and counted by γ scintillation to determine the percentage injected dose per gram tissue (% ID/g). […] Pharmacokinetic analysis on blood clearance was performed using WinNonLin software (Parsight Corp.).

IMMU-132: ADC of the humanized hRS7 anti-Trop-2 antibody conjugated by a pH-sensitive linker (CL2A) to SN-38
mean tumor volume ([1]; i.v. 500 μg twice a week for four weeks): 0.066±0.076 cm^3
mice still alive on day 82 ([1]; i.v.): 5
median survival time (MST) ([1]; i.v.): > 67 days
mean tumor volume ([1]; s.c. 500 μg twice weekly for four weeks): 0.111±0.057 cm^3
mice still alive on day 82 ([1]; s.c.): 5
median survival time (MST) ([1]; s.c.): > 67 days
clearance of intact conjugate vs. the IgG ([2]; ELISA): cleared more quickly than the IgG
time for the conjugate to clear from the serum ([2]; patients): ≤ 3 days
amount in the tumor compared with hRS7 IgG ([3]; 72 hours (peak uptake)): similar
half-life shorter than unconjugated hRS7 ([3]; i.v., 250-μg protein): ~40%

Source: patent US10799597B2, “Subcutaneous administration of antibody-drug conjugates for cancer therapy” (Immunomedics, Inc., priority 2017, dated 2020)
